# Assay results from ChEMBL document CHEMBL4837244 (ACS Med Chem Lett, 2021).
# Experiment: Metabolic stability in mouse liver microsomes assessed as parent compound remaining at 0.1 uM in presence of NADPH by LC-MS/MS analysis
# Assay type: ADME, Microsome
# Conditions: read-out: Stabilty
row,remaining at 0.1 µM [%],Structure (SMILES)
1,< 45,N#Cc1ccc(CCN2CCC(Nc3nc4ccccc4n3Cc3ccc(C#N)c(F)c3)CC2)cc1
2,< 45,O=C(c1ccc(CCN2CCC(Nc3nc4ccccc4n3Cc3ccc(F)cc3)CC2)cc1)N1CCNCC1

# Second part, the compound before the results:
row,Structure (SMILES),remaining at 0.1 µM [%]
1,N#Cc1ccc(Cn2c(NC3CCN(CCc4ccc(C(F)(F)F)cc4)CC3)nc3ccccc32)cc1,< 45
2,N#Cc1ccc(CCN2CCC(Nc3nc4ccccc4n3Cc3ccc(C(F)(F)F)nc3)CC2)cc1,< 45
3,CCOC(=O)c1ccc(CCN2CCC(Nc3nc4ccccc4n3Cc3ccc(C#N)cc3)CC2)cc1,< 45

# Experiment: Metabolic stability in rat liver microsomes assessed as parent compound remaining at 0.1 uM in presence of NADPH by LC-MS/MS analysis
# Assay type: ADME, Microsome
# Conditions: read-out: Stabilty
row,remaining at 0.1 µM [%],Structure (SMILES)
1,< 45,N#Cc1ccc(CCN2CCC(Nc3nc4ccccc4n3Cc3ccc(C#N)c(F)c3)CC2)cc1
2,< 45,O=C(c1ccc(CCN2CCC(Nc3nc4ccccc4n3Cc3ccc(F)cc3)CC2)cc1)N1CCNCC1

# Further lines, the compound ahead of its results:
row,Structure (SMILES),remaining at 0.1 µM [%]
1,N#Cc1ccc(Cn2c(NC3CCN(CCc4ccc(C(F)(F)F)cc4)CC3)nc3ccccc32)cc1,< 45
2,N#Cc1ccc(CCN2CCC(Nc3nc4ccccc4n3Cc3ccc(C(F)(F)F)nc3)CC2)cc1,< 45
3,CCOC(=O)c1ccc(CCN2CCC(Nc3nc4ccccc4n3Cc3ccc(C#N)cc3)CC2)cc1,< 45

# Experiment: Metabolic stability in human liver microsomes assessed as parent compound remaining at 0.1 uM in presence of NADPH by LC-MS/MS analysis
# Assay type: ADME, Microsome
# Conditions: not given
row,Stabilty,Structure (SMILES)
1,Unstable,N#Cc1ccc(CCN2CCC(Nc3nc4ccccc4n3Cc3ccc(C#N)c(F)c3)CC2)cc1
2,Unstable,O=C(c1ccc(CCN2CCC(Nc3nc4ccccc4n3Cc3ccc(F)cc3)CC2)cc1)N1CCNCC1

# The next lines start with the compound.
row,Structure (SMILES),Stabilty
1,N#Cc1ccc(Cn2c(NC3CCN(CCc4ccc(C(F)(F)F)cc4)CC3)nc3ccccc32)cc1,Unstable
2,N#Cc1ccc(CCN2CCC(Nc3nc4ccccc4n3Cc3ccc(C(F)(F)F)nc3)CC2)cc1,Unstable
3,CCOC(=O)c1ccc(CCN2CCC(Nc3nc4ccccc4n3Cc3ccc(C#N)cc3)CC2)cc1,Unstable
